Series [1] relates to bloodstream-form trypanosome T. brucei brucei 427 strain. The series is described as follows: Trypanosoma brucei brucei high-throughput in vitro drug sensitivity assay (resazurin). In kind it is cell-based. To be noted: for IC50: Trypanosoma brucei, 72 hrs incubation; for Selectivity Index (L929 IC50 / T. b. brucei IC50): T. b. brucei vs L929. (In general: Alamar Blue is a resazurin reagent that responds to reducing activity.)

A short description of series [2]: L929 cytotoxicity evaluation (resazurin). In kind it is cell-based. Conditions: mouse, L929 mouse fibroblast cells; 72 hrs incubation; read-out: Cytotox L-929 IC50. The procedure:
For evaluation of compound effects on mammalian cells, L929 mouse fibroblast cells were used. Cells were maintained as adherent cultures in T-25 vented cap flasks in a humidified incubator at 37° C. in the presence of 5% CO2. Culture media was D-MEM supplemented with 10% fetal bovine serum and 1% penicillin/streptomycin. L929 cells were maintained below confluent levels by sub-culturing at 1:10 dilution twice weekly using 0.05% trypsin for detachment.
Sub-confluent L929 cells were trypsinized, resuspended in fresh media and 10 uL was counted using hemocytometer to determine cell concentration. Cells were diluted to 1×10^4/mL in DMEM, dispensed (100 uL) into 96-well plates using a Multidrop 384 dispenser and allowed to attach overnight. Spent media was replaced with 99.5 uL fresh D-MEM and compounds to be tested were serially diluted in DMSO and 0.5 uL added using a Biomek NX liquid handler. Plates were incubated with compounds for 72 hrs at 37° C. with 5% CO2. Resazurin (20 uL of 12.5 mg/ml stock) from Sigma-Aldrich was added to each well and plates were incubated for an additional 3-4 hrs. Assay plates were read using an EnVision plate reader at an excitation wavelength of 544 nm and emission of 590 nm. Single data points were used to generate sigmoidal dose response curves and determine IC50 values using XLfit curve fitting software from IDBS (Guildford, UK).

Molecules are shown by their SMILES. In brackets after ≈: the same amount, converted by molar mass. Like-named read-outs stand apart in the source and are kept apart here.

As to `COc1ccc(C(=O)Nc2ccc3c(c2)B(O)OC3(C)C)c(OC)c1` [compound 94], the IC50 in series [1] (read-out: T.b. brucei IC50) worked out at 0.4 µg/mL. For the same compound, the half-inhibitory concentration (IC50) at 72 h in series [2] is more than 10 µg/mL.

Take `CC1(C)OB(O)c2cc(NC(=O)c3ccncc3)ccc21` [compound 116, N-(1-Hydroxy-3,3-dimethyl-1,3-dihydro-benzo[c][1,2]oxaborol-6-yl)-isonicotinamide]: the IC50 in series [1] (read-out: T.b. brucei IC50) is more than 5 µg/mL. In addition, the IC50 at 72 h in series [2] is more than 10 µg/mL.

As to `CC1(C)OB(O)c2cc(NC(=O)C3CCC3)ccc21` [compound 127, Cyclobutanecarboxylic acid (1-hydroxy-3,3-dimethyl-1,3-dihydro-benzo[c][1,2]oxaborol-6-yl)-amide], in series [1] (read-out: T.b. brucei IC50), the IC50 was found to be 2.85 µg/mL. Besides, the half-inhibitory concentration (IC50) at 72 h in series [2] was more than 10 µg/mL.

In the case of `CC1(C)OB(O)c2cc(NC(=O)c3ccc(C(F)(F)F)cc3F)ccc21` [compound 84, 2-Fluoro-N-(1-hydroxy-3,3-dimethyl-1,3-dihydro-benzo[c][1,2]oxaborol-6-yl)-4-trifluoromethyl-benzamide], in series [1] (read-out: T.b. brucei IC50), the IC50 is 0.533 µg/mL. For the same compound, in series [2], the IC50 at 72 h was more than 10 µg/mL.

With `CC(C)CC1OB(O)c2cc(NC(=O)c3ccccc3Cl)ccc21` (stereo not drawn) [compound 25, 2-Chloro-N-(1-hydroxy-3-isobutyl-1,3-dihydro-benzo[c][1,2]oxaborol-6-yl)-benzamide], the IC50 in series [1] (read-out: T. b. brucei IC50) is more than 14.6 µM; in series [1] (read-out: T.b. brucei IC50), more than 5 µg/mL. In addition, the IC50 at 72 h in series [2] was more than 10 µg/mL.

In the case of `CC1(C)OB(O)c2cc(NC(=O)c3cccc(Cl)c3F)ccc21` [compound 70, 3-Chloro-2-fluoro-N-(1-hydroxy-3,3-dimethyl-1,3-dihydro-benzo[c][1,2]oxaborol-6-yl)-benzamide], the IC50 in series [1] (read-out: T.b. brucei IC50) is 0.377 µg/mL. In addition, in series [2], the IC50 at 72 h is more than 10 µg/mL.

As to `COc1ccc(C(=O)Nc2ccc3c(c2)B(O)OC3(C)C)cc1` [compound 48, N-(1-Hydroxy-3,3-dimethyl-1,3-dihydro-benzo[c][1,2]oxaborol-6-yl)-4-methoxy-benzamide], the “Selectivity Index (L929 IC50 / T. b. brucei IC50)” value in series [1] is more than 9. For the same compound, the IC50 came out at 3.57 µM in series [1] (read-out: T. b. brucei IC50) and 1.11 µg/mL in series [1] (read-out: T.b. brucei IC50). Further, the IC50 at 72 h in series [2] was more than 10 µg/mL.

For the compound `CC1(C)OB(O)c2cc(NC(=O)c3ccc(-c4ccccc4)cc3)ccc21` [compound 62, Biphenyl-4-carboxylic acid (1-hydroxy-3,3-dimethyl-1,3-dihydro-benzo[c][1,2]oxaborol-6-yl)-amide], in series [1] (read-out: T.b. brucei IC50), the IC50 was determined as 0.365 µg/mL. Further, in series [2], the IC50 at 72 h is more than 10 µg/mL.

`COC(=O)c1ccc(C(=O)Nc2ccc3c(c2)B(O)OC3(C)C)cc1` [compound 58, N-(1-Hydroxy-3,3-dimethyl-1,3-dihydro-benzo[c][1,2]oxaborol-6-yl)-terephthalamic acid methyl ester]: the IC50 in series [1] (read-out: T.b. brucei IC50) came out at 1.11 µg/mL. Besides, the IC50 at 72 h in series [2] is more than 10 µg/mL.

As for `CC1(C)OB(O)c2cc(NC(=O)c3ccc([N+](=O)[O-])cc3Cl)ccc21` [compound 93], the IC50 in series [1] (read-out: T.b. brucei IC50) worked out at 0.197 µg/mL. Further, the IC50 at 72 h in series [2] is more than 10 µg/mL.

For the compound `Cc1cc(C(=O)Nc2ccc3c(c2)B(O)OC3(C)C)c(C)o1` [compound 122, 2,5-Dimethyl-furan-3-carboxylic acid (1-hydroxy-3,3-dimethyl-1,3-dihydro-benzo[c][1,2]oxaborol-6-yl)-amide], in series [1] (read-out: T.b. brucei IC50), the IC50 was more than 5 µg/mL. In addition, in series [2], the IC50 at 72 h is more than 10 µg/mL.

Take `CCC(C)(C)C(=O)Nc1ccc2c(c1)B(O)OC2(C)C` [compound 132, N-(1-Hydroxy-3,3-dimethyl-1,3-dihydro-benzo[c][1,2]oxaborol-6-yl)-2,2-dimethyl-butyramide]: the IC50 in series [1] (read-out: T.b. brucei IC50) was 3.81 µg/mL. Moreover, in series [2], the IC50 at 72 h was more than 10 µg/mL.

As for `CC1(C)OB(O)c2cc(NC(=O)c3ccccc3I)ccc21` [compound 40, N-(1-Hydroxy-3,3-dimethyl-1,3-dihydro-benzo[c][1,2]oxaborol-6-yl)-2-iodo-benzamide], in series [1] (read-out: T.b. brucei IC50), the IC50 worked out at 0.599 µg/mL. In addition, the IC50 at 72 h in series [2] was more than 10 µg/mL.

Take `CC1(C)OB(O)c2cc(NC(=O)c3c(F)cccc3Cl)ccc21` [compound 73, 2-Chloro-6-fluoro-N-(1-hydroxy-3,3-dimethyl-1,3-dihydro-benzo[c][1,2]oxaborol-6-yl)-benzamide]: the IC50 in series [1] (read-out: T.b. brucei IC50) was determined as 2.44 µg/mL. Also, the IC50 at 72 h in series [2] was more than 10 µg/mL.

In the case of `CC1(C)OB(O)c2cc(NC(=O)c3ccc(F)cc3F)ccc21` [compound 63, 2,4-Difluoro-N-(1-hydroxy-3,3-dimethyl-1,3-dihydro-benzo[c][1,2]oxaborol-6-yl)-benzamide], in series [1], the “Selectivity Index (L929 IC50 / T. b. brucei IC50)” value is recorded as more than 4. Besides, the IC50 came to 8.39 µM in series [1] (read-out: T. b. brucei IC50) and 2.66 µg/mL in series [1] (read-out: T.b. brucei IC50). Further, in series [2], the IC50 at 72 h is more than 10 µg/mL.

As for `CC1(C)OB(O)c2cc(NC(=O)c3ccc(-c4cccs4)cc3)ccc21` [compound 60, N-(1-Hydroxy-3,3-dimethyl-1,3-dihydro-benzo[c][1,2]oxaborol-6-yl)-4-thiophen-2-yl-benzamide], the IC50 in series [1] (read-out: T.b. brucei IC50) is 0.205 µg/mL. In addition, the IC50 at 72 h in series [2] is more than 10 µg/mL.

Consider `CC(C)CC1OB(O)c2cc(NC(=O)c3ccc(F)cc3)ccc21` (stereo not drawn) [compound 24, 4-Fluoro-N-(1-hydroxy-3-isobutyl-1,3-dihydro-benzo[c][1,2]oxaborol-6-yl)-benzamide], for which the IC50 was more than 15.3 µM in series [1] (read-out: T. b. brucei IC50) and more than 5 µg/mL in series [1] (read-out: T.b. brucei IC50). In addition, the IC50 at 72 h in series [2] was more than 10 µg/mL.

Regarding `CC1(C)OB(O)c2cc(NC(=O)c3cccc(OC(F)(F)F)c3)ccc21` [compound 52, N-(1-Hydroxy-3,3-dimethyl-1,3-dihydro-benzo[c][1,2]oxaborol-6-yl)-3-trifluoromethoxy-benzamide], the IC50 in series [1] (read-out: T.b. brucei IC50) came out at 2.27 µg/mL. Besides, in series [2], the IC50 at 72 h is more than 10 µg/mL.

`O=C(Nc1ccc2c(c1)B(O)OC2C1CCCC1)c1ccccc1Cl` (stereo not drawn) [compound 18, 2-Chloro-N-(3-cyclopentyl-1-hydroxy-1,3-dihydro-benzo[c][1,2]oxaborol-6-yl)-benzamide]: in series [1], the “Selectivity Index (L929 IC50 / T. b. brucei IC50)” value is 2. In addition, the IC50 in series [1] (read-out: T. b. brucei IC50) was 11.9 µM; in series [1] (read-out: T.b. brucei IC50), 4.22 µg/mL. Further, the IC50 at 72 h in series [2] was determined as 9.29 µg/mL (≈ 26.1 µM).

As for `CC1(C)OB(O)c2cc(NC(=O)c3c(Cl)cc(Cl)cc3Cl)ccc21` [compound 105, 2,4,6-Trichloro-N-(1-hydroxy-3,3-dimethyl-1,3-dihydro-benzo[c][1,2]oxaborol-6-yl)-benzamide], the IC50 in series [1] (read-out: T.b. brucei IC50) is 0.788 µg/mL. Further, the IC50 at 72 h in series [2] was more than 10 µg/mL.

Regarding `CC1OB(O)c2cc(NC(=O)c3ccc(F)cc3Br)ccc21` (stereo not drawn) [compound 16, 2-Bromo-4-fluoro-N-(1-hydroxy-3-methyl-1,3-dihydro-benzo[c][1,2]oxaborol-6-yl)-benzamide], the “Selectivity Index (L929 IC50 / T. b. brucei IC50)” value in series [1] is recorded as 29. Moreover, the IC50 in series [1] (read-out: T. b. brucei IC50) was 0.294 µM; in series [1] (read-out: T.b. brucei IC50) it was 0.107 µg/mL. In series [2], the IC50 at 72 h was found to be 3.06 µg/mL (≈ 8.41 µM).

As for `CC1(C)OB(O)c2cc(NC(=O)c3ccc(Cl)cc3)ccc21` [compound 45, 4-Chloro-N-(1-hydroxy-3,3-dimethyl-1,3-dihydro-benzo[c][1,2]oxaborol-6-yl)-benzamide], the IC50 in series [1] (read-out: T.b. brucei IC50) was 3.64 µg/mL. Further, in series [2], the IC50 at 72 h was more than 10 µg/mL.

`CC1(C)OB(O)c2cc(NC(=O)c3c(F)cccc3F)ccc21` [compound 64, 2,6-Difluoro-N-(1-hydroxy-3,3-dimethyl-1,3-dihydro-benzo[c][1,2]oxaborol-6-yl)-benzamide]: in series [1] (read-out: T.b. brucei IC50), the IC50 is 0.724 µg/mL. Besides, the IC50 at 72 h in series [2] was more than 10 µg/mL.

For the compound `COc1cc(C(=O)Nc2ccc3c(c2)B(O)OC3(C)C)cc(OC)c1OC` [compound 106, N-(1-Hydroxy-3,3-dimethyl-1,3-dihydro-benzo[c][1,2]oxaborol-6-yl)-3,4,5-trimethoxy-benzamide], the IC50 in series [1] (read-out: T.b. brucei IC50) was more than 5 µg/mL. The IC50 at 72 h in series [2] is more than 10 µg/mL.

Regarding `CC1(C)OB(O)c2cc(NC(=O)c3ccc(SC(F)(F)F)cc3)ccc21` [compound 54, N-(1-Hydroxy-3,3-dimethyl-1,3-dihydro-benzo[c][1,2]oxaborol-6-yl)-4-trifluoromethylsulfanyl-benzamide], in series [1] (read-out: T.b. brucei IC50), the IC50 came to 0.571 µg/mL. In series [2], the IC50 at 72 h was more than 10 µg/mL.

On to `CC1(C)OB(O)c2cc(NC(=O)c3ccc(C(F)(F)F)cc3)ccc21` [compound 36, N-(1-Hydroxy-3,3-dimethyl-1,3-dihydro-benzo[c][1,2]oxaborol-6-yl)-4-trifluoromethyl-benzamide], for which the IC50 in series [1] (read-out: T.b. brucei IC50) amounted to 4.05 µg/mL. For the same compound, in series [2], the IC50 at 72 h was more than 10 µg/mL.

In the case of `CC1(C)OB(O)c2cc(NC(=O)c3ccc(Cl)c(Cl)c3)ccc21` [compound 67, 3,4-Dichloro-N-(1-hydroxy-3,3-dimethyl-1,3-dihydro-benzo[c][1,2]oxaborol-6-yl)-benzamide], in series [1] (read-out: T.b. brucei IC50), the IC50 is more than 5 µg/mL. Also, in series [2], the IC50 at 72 h is more than 10 µg/mL.

Turning to `CC1(C)OB(O)c2cc(NC(=O)c3cc(F)ccc3C(F)(F)F)ccc21` [compound 88, 5-Fluoro-N-(1-hydroxy-3,3-dimethyl-1,3-dihydro-benzo[c][1,2]oxaborol-6-yl)-2-trifluoromethyl-benzamide], the IC50 in series [1] (read-out: T.b. brucei IC50) was 0.313 µg/mL. The IC50 at 72 h in series [2] was more than 10 µg/mL.

In the case of `CC(=O)Nc1ccc2c(c1)B(O)OC2C1CCCC1` (stereo not drawn) [compound 21, N-(3-Cyclopentyl-1-hydroxy-1,3-dihydro-benzo[c][1,2]oxaborol-6-yl)-acetamide], the values for the IC50 in series [1] (read-out: T. b. brucei IC50) and in series [1] (read-out: T.b. brucei IC50) were more than 19.3 µM and more than 5 µg/mL, respectively. In series [2], the IC50 at 72 h is more than 10 µg/mL.

The IC50 is the concentration that gives 50% inhibition.

The values are drawn from patent US20110190235A1, “BORON-CONTAINING SMALL MOLECULES AS ANTIPROTOZOAL AGENTS” (Anacor Pharmaceuticals, Inc., priority 2009, published 2011).
